Assay results as given in PMC10897476, “Pyridylpiperazine efflux pump inhibitor boosts in vivo antibiotic efficacy against K. pneumoniae” (EMBO Molecular Medicine, 2023).
Marks after values point to notes of the source that are not given here.

Key:
Assay type in all cases: cell-based, Klebsiella pneumoniae
[1] = tested on: K. pneumoniae AcrB^V448E; assay: MIC of antibiotics with and without EPI (REMA), AcrB V448E mutant; conditions: for Minimum Inhibitory Concentration: K. pneumoniae AcrB^V448E; for MIC: Klebsiella pneumoniae, read-out: Minimum Inhibitory Concentration
Description: (§1) MIC experiments were carried out according to the CLSI guidelines (CLSI [2023]). Overnight cultures were diluted to an OD600 = 0.001 in CAMHB followed by addition of efflux pump inhibitors (EPIs) at a final concentration of 100 µM. […] Plates were incubated at 37 °C for up to 20 h. Bacterial viability was evaluated using the resazurin microtitre assay (REMA) and measured by fluorescence using a Tecan Spaert multimode plate reader (Ex: 530 nm Em: 590 nm). MICs were defined as the concentration that prevented 90% of resazurin turnover compared to the non-treated bacteria.
(§2) Mutations in acrB or ramR identified in the BDM88855.HCl (1’) resistant mutant (a.k.a., KPJC11) were introduced individually into K. pneumoniae ATCC 43816 chromosome by allelic exchange (Cianfanelli et al, [2020]). Briefly, 1-kb PCR products centred around each point mutation were generated by amplifying acrB with primers RH1251 ([…][…]) and RH1252 ([…][…]) or ramR with primers RH1249 ([…][…]) and RH1250 ([…][…]) from KPJC11 genomic DNA. PCR fragments were cloned into pFOK (Cianfanelli et al, [2020]) using NEB-building kit ([New England Biolabs]) to generate pEP1533 and pEP1534. Correct plasmids were confirmed by sequencing and introduced into K. pneumoniae ATCC43816 WT via conjugation with the MFDpir+ E. coli donor strain. Exconjugants were selected on kanamycin (50 mg/L) plates at 37 °C and plasmid chromosomal integration was checked by PCR. […] The next day, cultures were diluted and plated onto LB agar. Isolated colonies were then patched onto LB plates with or without kanamycin (50 mg/L) and Km^S candidates were evaluated for correct allelic exchange via acrB or ramR sequencing and then WGS to confirm no additional mutations were introduced.

[2] = tested on: K. pneumoniae AcrB^V448E RamR^mut; assay: MIC of antibiotics with and without EPI (REMA), double mutant; conditions: for Minimum Inhibitory Concentration: K. pneumoniae AcrB^V448E RamR^mut
Description: as §1

[3] = tested on: K. pneumoniae RamR^mut (K124*stop); assay: MIC of antibiotics with and without EPI (REMA), RamR mutant; conditions: for Minimum Inhibitory Concentration: K. pneumoniae RamR^mut; for MIC: Klebsiella pneumoniae, read-out: Minimum Inhibitory Concentration
Description: as §1, §2

[4] = tested on: K. pneumoniae ATCC 43816 (WT); assay: MIC of antibiotics with and without EPI (REMA), WT strain; conditions: K. pneumoniae WT; for MIC: Klebsiella pneumoniae, ATCC43816, No EPI, read-out: Minimum Inhibitory Concentration
Description: Overnight cultures were diluted to an OD600 = 0.001 in CAMHB followed by addition of efflux pump inhibitors (EPIs) at a final concentration of 100 µM. […] Plates were incubated at 37 °C for up to 20 h. […] MICs were defined as the concentration that prevented 90% of resazurin turnover compared to the non-treated bacteria.

| Structure (SMILES) | Minimum Inhibitory Concentration ([1]; + 100 µM 1') | Minimum Inhibitory Concentration ([1]; + 100 µM 5) | Minimum Inhibitory Concentration ([1]; + 100 µM PAβN) | MIC [1] [µg/mL] | Minimum Inhibitory Concentration ([2]; + 100 µM 1') [mg/L] | Minimum Inhibitory Concentration ([2]; + 100 µM 5) [mg/L] | Minimum Inhibitory Concentration ([2]; + 100 µM PAβN) | Minimum Inhibitory Concentration ([2]; No EPI) [mg/L] | Minimum Inhibitory Concentration ([3]; + 100 µM 1') | Minimum Inhibitory Concentration ([3]; + 100 µM 5) | Minimum Inhibitory Concentration ([3]; + 100 µM PAβN) | MIC [3] [µg/mL] | Minimum Inhibitory Concentration ([4]; + 100 µM 1') | Minimum Inhibitory Concentration ([4]; + 100 µM 5) | Minimum Inhibitory Concentration ([4]; + 100 µM PAβN) | MIC [4] [µg/mL] | Minimum Inhibitory Concentration ([1]; No EPI) [mg/L] | Minimum Inhibitory Concentration ([3]; No EPI) [mg/L] | MIC ([2]; Klebsiella pneumoniae, read-out: Minimum Inhibitory Concentration) [µg/mL] |
| --- | --- | --- | --- | --- | --- | --- | --- | --- | --- | --- | --- | --- | --- | --- | --- | --- | --- | --- | --- |
| O=C(N[C@H](CO)[C@H](O)c1ccc([N+](=O)[O-])cc1)C(Cl)Cl [Chloramphenicol] | 2.0^# mg/L | 4.7 mg/L | 2.0^# mg/L | 6.7 | 128 | 128 | 5.3^# mg/L | 128 | 2.7^# mg/L | 4.7^# mg/L | 2.7^# mg/L | 53 | 1.0^# mg/L | 1.0^# mg/L | 1.7^# mg/L | 4 | – | – | – |
| CC(=O)O[C@H]1C[C@@]2(C)[C@@H](C[C@@H](O)[C@H]3[C@@]4(C)CC[C@@H](O)[C@@H](C)[C@@H]4CC[C@@]32C)/C1=C(\CCC=C(C)C)C(=O)O [Fusidic acid] | 128 mg/L | 128 mg/L | 32^# mg/L | – | 128 | 128 | 107 mg/L | 128 | 128 mg/L | 128 mg/L | 85 mg/L | – | 85 mg/L | 128 mg/L | 21^# mg/L | 128 | 128 | 128 | – |
| CC(=O)NC[C@H]1CN(c2ccc(N3CCOCC3)c(F)c2)C(=O)O1 [Linezolid] | 85 mg/L | 128 mg/L | 64^# mg/L | – | 128 | 128 | 128 mg/L | 128 | 128 mg/L | 107 mg/L | 128 mg/L | – | 13^# mg/L | 27^# mg/L | 64^# mg/L | 128 | 128 | 128 | – |
| C[C@@H](O)[C@H]1C(=O)N2C(C(=O)O)=C(S[C@@H]3CN[C@H](C(=O)N(C)C)C3)[C@H](C)[C@H]12 [Meropenem] | 0.67 mg/L | 0.50 mg/L | 0.50 mg/L | 0.5 | 0.50 | 0.50 | 1.0 mg/L | – | 0.50 mg/L | 0.50 mg/L | 0.50 mg/L | 0.5 | 0.50 mg/L | 0.50 mg/L | 0.50 mg/L | 0.5 | – | – | 0.67 |
| CO[C@@H]1[C@@H](OC(N)=O)[C@@H](O)[C@H](Oc2ccc3c(O)c(NC(=O)c4ccc(O)c(CC=C(C)C)c4)c(=O)oc3c2C)OC1(C)C [Novobiocin] | 64^# mg/L | 32^# mg/L | 16^# mg/L | – | 128 | 128 | 8^# mg/L | 128 | 128 mg/L | 85 mg/L | 43^# mg/L | – | 13^# mg/L | 13^# mg/L | 11^# mg/L | 64 | 128 | 128 | – |
